In one experiment the test system is ERK1/2. Nature of the experiment: Cellular kinase engagement assay (KiNativ), ATP-biotin probe pull-down. The following applies: MDA-MB-468 cells, with MG132, 1 hour. The format is cell-based. An excerpt:
(§1) After confirming HTH-01-091 as a potent MELK inhibitor in biochemical assays, we next investigated whether HTH-01-091 engages MELK in cells. We performed a KiNativ assay to measure HTH-01-091 engagement with the ATP binding pocket of MELK, which would prevent active-site labeling from a lysine-reactive ATP-biotin probe ([Patricelli et al., 2007]). […] As a control, ERK1/2 pull-down was not affected by HTH-01-091 treatment, consistent with our profiling data showing no binding affinity of HTH-01-091 to ERK1/2 (Figure 2A, Figure 1—source data 1).
(§2) Figure 2. […] (A) Immunoblots analyzing the pull-down levels of MELK and ERK1/2 by ATP-biotin probes and streptavidin beads from MDA-MB-468 cells treated with different doses of HTH-01-091 and […] MG132 for 1 hour. […] See also Figure 2—figure supplement 1 for rescue experiments using carfilzomib and MLN4924. (C) 3-day antiproliferation assays of HTH-01-091 and other MELK inhibitors tested in MDA-MB-468 (basal) and ZR-75-1 (luminal) cells. Values represent two independent experimental mean ±SD. Error bars shorter than the height of the symbol are not drawn. […] Figure 2—figure supplement 1. […]
(§3) MDA-MB-468 cells on 10 cm plates were treated with HTH-01-091 at indicated concentrations and MG132 (10 μM) for an hour. […] The beads were boiled at 95°C for 10 min and analyzed by immunoblotting.

Experiment [1] has as its target T1, MELK (Homo sapiens, UniProt Q14680). Described as above. The format is cell-based. The settings on record: MDA-MB-468 cells, different doses, with MG132, 1 hour.
Excerpt: as §1, §2, §3

For the next experiment, the target named is CDK7 (Homo sapiens, UniProt P50613). Nature of the experiment: Adapta kinase assay. The settings on record: Adapta assay at [ATP]=apparent Km; read-out: Biochemical IC50 CDK7.
Experiment [2] addresses T1, MELK. Nature of the experiment: Z’-LYTE enzymatic assay. The format is biochemical.
Another experiment concerns AMPK. Nature of the experiment: ICKP radiometric kinase assay. The settings on record: 1 μM.
In experiment [3] the test system is WT and MELK−/− MDA-MB-468 cells. Nature of the experiment: 3-day proliferation assays comparing WT and MELK−/− cells. The following applies: clone E9 vs clone C7. The format is cell-based. From the text: We compared a WT clone (clone E9) and a MELK−/− clone (clone C7) with the parental cell line, and observed no significant difference in growth rate or cell cycle distribution (Figure 3A,B,C).
Figure 3. WT and MELK−/− MDA-MB-468 cells have similar growth rates, cell cycle distribution, and sensitivity to MELK inhibitors. (A) Immunoblots for MELK and GAPDH in WT (clone E9) and MELK−/− (clone C7) clones isolated from MDA-MB-468 cells transfected with sgMELK-3 and Cas9. See also Figure 3—figure supplements 1 and 2, and Figure 3—source data 1 for the details of the generation of MELK−/− clones. (B) 5-day proliferation curves comparing the growth rates of parental, WT, and MELK−/− MDA-MB-468 cells. Values represent two independent experimental mean ±SD. (C) Cell cycle analysis comparing WT and MELK−/− MDA-MB-468 cells. Values represent triplicate mean ±SD. […] Values represent duplicate mean ±SD. Error bars shorter than the height of the symbol are not drawn. Figure 3—source data 1. Genotype analysis of single cell clones selected from MDA-MB-468 cells transfected with Cas9/sgMELK-3. Figure 3—figure supplement 1. CRISPR/Cas9-mediated knockout of MELK in MDA-MB-468 cells. (A) Tracking of Indels by Decomposition (TIDE) analysis ([Brinkman et al., 2014]) of MDA-MB-468 cells transfected with Cas9/sgMELK-3 and enriched by the transfection marker OFP. […]

For experiment [4], the target named is T1, MELK. The settings on record: ref Chung et al., 2012; cited from earlier work.

Like-named read-outs stand apart in the source and are kept apart here.

T1 sequence (Q14680 whole entry): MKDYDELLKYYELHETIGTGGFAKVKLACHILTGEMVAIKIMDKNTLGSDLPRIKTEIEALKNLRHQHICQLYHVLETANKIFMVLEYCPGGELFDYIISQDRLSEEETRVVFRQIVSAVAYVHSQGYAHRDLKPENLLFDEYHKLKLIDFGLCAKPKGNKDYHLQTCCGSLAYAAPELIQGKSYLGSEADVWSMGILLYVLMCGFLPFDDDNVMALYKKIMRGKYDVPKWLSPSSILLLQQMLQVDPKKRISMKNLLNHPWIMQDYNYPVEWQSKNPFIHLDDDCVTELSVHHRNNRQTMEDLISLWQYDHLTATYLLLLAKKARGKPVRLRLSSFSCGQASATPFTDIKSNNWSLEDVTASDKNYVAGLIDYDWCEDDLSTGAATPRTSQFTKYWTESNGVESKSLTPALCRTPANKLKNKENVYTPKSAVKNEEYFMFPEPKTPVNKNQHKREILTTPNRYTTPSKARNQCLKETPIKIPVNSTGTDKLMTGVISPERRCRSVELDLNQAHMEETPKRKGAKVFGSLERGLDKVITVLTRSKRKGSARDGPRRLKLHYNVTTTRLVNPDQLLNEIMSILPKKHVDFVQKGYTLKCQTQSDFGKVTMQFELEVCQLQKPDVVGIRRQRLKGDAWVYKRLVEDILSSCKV
Sequence of CDK7 (P50613 whole entry): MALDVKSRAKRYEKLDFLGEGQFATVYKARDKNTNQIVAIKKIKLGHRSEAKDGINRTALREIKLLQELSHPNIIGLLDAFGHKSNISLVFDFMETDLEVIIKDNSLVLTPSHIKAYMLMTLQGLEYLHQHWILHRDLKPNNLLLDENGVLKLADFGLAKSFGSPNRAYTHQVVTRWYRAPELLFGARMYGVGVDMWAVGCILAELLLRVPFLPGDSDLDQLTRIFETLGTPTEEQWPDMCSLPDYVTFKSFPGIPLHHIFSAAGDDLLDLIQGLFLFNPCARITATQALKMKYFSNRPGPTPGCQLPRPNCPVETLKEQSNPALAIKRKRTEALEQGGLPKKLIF
Sequence of CDK7 (P51946 whole entry partner): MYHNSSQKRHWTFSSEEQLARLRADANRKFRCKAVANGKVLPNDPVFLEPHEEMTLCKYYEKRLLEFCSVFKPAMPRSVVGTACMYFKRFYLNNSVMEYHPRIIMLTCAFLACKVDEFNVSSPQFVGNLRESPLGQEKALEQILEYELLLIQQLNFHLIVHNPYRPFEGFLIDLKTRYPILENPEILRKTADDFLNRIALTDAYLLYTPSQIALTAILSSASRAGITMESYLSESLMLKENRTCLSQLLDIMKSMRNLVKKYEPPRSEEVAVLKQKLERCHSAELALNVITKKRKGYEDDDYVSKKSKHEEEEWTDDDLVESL
Sequence of CDK7 (P51948 whole entry partner): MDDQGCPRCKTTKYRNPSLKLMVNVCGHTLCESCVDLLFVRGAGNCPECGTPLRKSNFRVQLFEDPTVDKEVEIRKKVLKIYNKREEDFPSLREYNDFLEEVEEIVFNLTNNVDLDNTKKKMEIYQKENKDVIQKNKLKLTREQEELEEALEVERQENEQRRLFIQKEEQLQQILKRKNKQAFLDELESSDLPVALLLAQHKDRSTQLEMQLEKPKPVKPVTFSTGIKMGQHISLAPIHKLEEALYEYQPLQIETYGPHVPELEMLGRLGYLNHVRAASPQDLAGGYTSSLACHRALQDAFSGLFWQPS

As to `CN(C)C[C@H]1CC[C@H](N2C(=O)NCc3cnc4ccc(-c5cc(Cl)c(O)c(Cl)c5)cc4c32)CC1` [HTH-01-091, 9-(3,5-dichloro-4-hydroxyphenyl)-1-(trans-4-((dimethylamino)methyl)cyclohexyl)-3,4-dihydropyrimido[5,4 c]quinolin-2(1H)-one], the “ERK1/2 pull-down (control)” value in the experiment on ERK1/2 was “not affected”. In addition, the “MELK pull-down by streptavidin beads (ATP-biotin probe)” value at MELK [1] is reported as “dose-dependently decreased MELK pull-down”. For the same compound, the IC50 is 1230 nM at CDK7; 10.5 nM on MELK [2] (Z’-LYTE assay at [ATP]=apparent Km, read-out: Biochemical IC50 MELK); under 20 nM at MELK [2] (measured by Z’LYTE biochemical assay, class symbols in Figure 2C, read-out: Potency (MELK)); 10.5 nM on MELK [2] (note column of Table 3, read-out: Note: MELK IC50).

Take `CC(=O)c1cnc2ccc(-c3cc(Cl)c(O)c(Cl)c3)nc2c1N[C@H]1CC[C@H](CN(C)C)CC1` [OTSSP167]: in the experiment on AMPK, the “% AR (% kinase activity remaining)” value was 2%. The “difference in sensitivity between WT and MELK−/− cells” value in experiment [3] is recorded as “did not observe differences in cell viability”. Besides, the “activity against MELK” value on MELK [4] is “subnanomolar”.

The values are drawn from paper PMC5605198, “MELK is not necessary for the proliferation of basal-like breast cancer cells” (eLife, 2017).
